Data on three compounds can be found in paper PMC9322761, “Design, Synthesis and Biological Characterization of Histone Deacetylase 8 (HDAC8) Proteolysis Targeting Chimeras (PROTACs) with Anti-Neuroblastoma Activity” (International Journal of Molecular Sciences, 2022).

Molecules are shown by their SMILES.

One assay concerns SK-N-BE(2)-C cells. Nature of the assay: Colony formation assay in neuroblastoma cells. The assay is classed as cell-based, human. The conditions noted are these: 5 and 10 μM, treatment 96 h, then 6 days without treatment.
Assay [1] addresses T1, HDAC8 (Homo sapiens, UniProt Q9BY41).
T1 sequence (Q9BY41 1-377): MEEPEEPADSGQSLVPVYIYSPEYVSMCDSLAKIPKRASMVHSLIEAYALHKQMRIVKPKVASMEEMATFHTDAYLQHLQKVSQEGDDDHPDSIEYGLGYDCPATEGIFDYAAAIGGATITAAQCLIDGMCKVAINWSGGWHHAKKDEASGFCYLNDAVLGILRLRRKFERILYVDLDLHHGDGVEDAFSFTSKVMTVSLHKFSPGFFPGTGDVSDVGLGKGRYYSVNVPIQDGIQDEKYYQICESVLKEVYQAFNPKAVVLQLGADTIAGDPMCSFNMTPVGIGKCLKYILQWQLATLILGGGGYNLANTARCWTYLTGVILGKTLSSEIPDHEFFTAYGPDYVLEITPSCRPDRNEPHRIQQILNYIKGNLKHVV
Nature of the assay: In vitro HDAC8 activity assay (Fluor de Lys-HDAC8). Type of assay: biochemical. Also noted: made in house. The following applies: for IC50: Table 1, PROTACs. The protocol:
Recombinant hHDAC8 was produced by Romier et al. in Strasbourg. The HDAC8 activity assays were performed according to the commercial HDAC8 Fluorometric Drug Discovery Kit (Fluor de Lys(R)-HDAC8, BML-KI178) corresponding to the instructions of the manufacturer. As substrate a tetrapeptide connected to aminomethylcoumarin (AMC) H2N-Arg- His-Lys(Ac)-Lys(Ac)-AMC was synthesized as previously described. The enzyme was incubated for 90 min at 37 °C, with a substrate concentration of 50 µM and increasing concentrations of inhibitors. The stop-solution-containing inhibitor was added to stop the hHDAC8 activity, and Trypsin was added to release the AMC. The solution was incubated for 20 min at 37 °C to develop the assay.
(§1) Inhibition was measured at increasing concentration and IC50 was calculated by nonlinear regression with Origin 9.0G software.

Another assay addresses HDAC1 (Homo sapiens, UniProt Q13547). The assay can be described thus: In vitro HDAC inhibitory activity assay, recombinant HDAC1 (fluorogenic substrate ZMAL). Type of assay: biochemical. Also noted: purchased BPS Biosciences. The protocol:
The in vitro testing on recombinant HDACs was performed as previously described. Recombinant human HDAC1 and −6 were purchased from BPS Biosciences. The enzyme inhibition was determined by using a reported homogenous fluorescence assay. […] Fluorescence intensity was measured at an excitation wavelength of 390 nm and an emission wavelength of 460 nm in a microtiter plate reader (BMG Polarstar).
as §1

The target of assay [2] is T1, HDAC8. Nature of the assay: HDAC8 degradation in SK-N-BE(2)-C neuroblastoma cells (Western blot). Also noted: endogenous in cells; host or cells: SK-N-BE(2)-C. Type of assay: cell-based. The conditions noted are these: SK-N-BE(2)-C cells; for HDAC8 degradation: up to 10 µM, Western blot. The protocol: Whole cell lysates from treated SK-N-BE(2)-C neuroblastoma cells were taken and the protein levels for HDAC8 and the acetylation of its substrate SMC3 were determined (Figure 6). As a control for HDAC6, we also assessed acetylation levels of α-tubulin. […] Western blot analysis was performed as described previously (Kolbinger et al.).
Figure 6 (A) SK-N-BE(2)-C neuroblastoma cells were treated for indicated time points with 10 µM of PROTACs. Degradation of HDAC8 and acetylation of HDAC8 target was analyzed via Western blot. (B) SK-N-BE(2)-C neuroblastoma cells were treated for 6 h with indicated concentrations of HyT_1p, CRBN_1b and HyT_1m. Acetylation of HDAC8 target SMC3 and HDAC6 target tubulin, as well as total HDAC8 levels, were assessed by Western blot. Quantified ac-SMC3 or ac-tubulin expression, respectively, was normalized to the respective tubulin loading control and to the solvent control (DMSO). This quantification is reflected by the numbers below each blot. […] Total HDAC6, total HDAC1, total HDAC8, and acetyl-histone H4 expression levels, were assessed by Western blot. Total GAPDH protein levels served as a loading control (LC). * unspecific bands obtained through reprobing of the membrane.

HDAC1, sequence (Q13547 whole entry): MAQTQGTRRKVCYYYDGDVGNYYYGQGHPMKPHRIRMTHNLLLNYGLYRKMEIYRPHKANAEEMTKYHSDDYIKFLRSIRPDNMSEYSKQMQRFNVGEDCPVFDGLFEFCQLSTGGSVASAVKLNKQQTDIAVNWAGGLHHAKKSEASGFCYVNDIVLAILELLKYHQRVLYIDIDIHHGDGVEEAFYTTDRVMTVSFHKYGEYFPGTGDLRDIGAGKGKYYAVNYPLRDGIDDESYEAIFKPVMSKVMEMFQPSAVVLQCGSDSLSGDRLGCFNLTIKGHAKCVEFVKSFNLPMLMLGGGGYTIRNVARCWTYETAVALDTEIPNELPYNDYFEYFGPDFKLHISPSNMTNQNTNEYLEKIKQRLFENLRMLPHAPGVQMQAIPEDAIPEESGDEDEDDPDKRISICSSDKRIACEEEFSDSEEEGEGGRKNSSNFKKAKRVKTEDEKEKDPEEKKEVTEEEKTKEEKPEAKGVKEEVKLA

For `COc1ccc(C(=O)NO)cc1NC(=O)c1ccc(NC(=O)CCCCCCCNc2cccc3c2C(=O)N(C2CCC(=O)NC2=O)C3=O)cc1` (stereo not drawn) [CRBN_1b], the “Effect on colony formation” value in the assay with SK-N-BE(2)-C cells is reported as “significantly decreased the ability to form colonies”. The IC50 was 810 ± 170 nM on HDAC8 [1] and over 20000 nM on HDAC1. Besides, on HDAC8 [1] (selectivity index, HDAC6 over HDAC8), the “SI (HDAC6/HDAC8)” value is on record as 0.7. Moreover, the “Remaining HDAC8 protein” value at HDAC8 [2] (6 h, 10 µM) turned out to be 40%. The “HDAC8 degradation” value on HDAC8 [2] is listed as “strong HDAC8 degradation”.
On to `O=C(COc1ccc(CNc2cc(C(=O)NO)ccc2Cl)cc1)NCCCCCNC(=O)CC12CC3CC(CC(C3)C1)C2` [HyT_1p], for which the “Effect on colony formation” value in the assay with SK-N-BE(2)-C cells is given as “significantly decreased the ability to form colonies”. This compound also had an IC50 against HDAC8 [1] of 750 ± 90 nM. For the same compound, the inhibition at 1 µM at HDAC1 (1 µM, read-out: HDAC1 % inhib. at given conc.) came to 2.3%. Besides, at HDAC1 (10 µM, read-out: HDAC1 % inhib. at given conc.), the inhibition at 10 µM was found to be 40%. For the same compound, on HDAC8 [2], the “HDAC8 degradation” value is “failed to degrade HDAC8”.
Turning to `COC(=O)c1ccc(C)c(NCc2ccc(OCc3cn(CCCCCC(=O)Nc4cccc5c4C(=O)N(C4CCC(=O)NC4=O)C5=O)nn3)cc2)c1` (stereo not drawn) [33a], in the assay on SK-N-BE(2)-C cells, the “Effect on colony formation” value was “inactive”. Besides, the “HDAC8 inhibitory activity” value at HDAC8 [1] (negative control) is “did not demonstrate a strong inhibitory activity”. Also, the “HDAC1 inhibitory activity” value on HDAC1 (negative control) is listed as “did not demonstrate a strong inhibitory activity”. In addition, the “HDAC8 degradation” value on HDAC8 [2] is “did not show hyperacetylation of SMC3 or HDAC8 degradation”.
